Species on record: Rattus norvegicus
Test: DrugMatrix - Regimen: Daily Repeat
Type: toxicity, organism-based, Sprague-Dawley
Set-up: regimen Daily Repeat, gender Male, age 6-8 weeks
Details: in vivo, po, route oral GAVAGE, […]; for ABSOLUTE BASOPHIL / ABSOLUTE EOSINOPHIL / ABSOLUTE LYMPHOCYTE / ABSOLUTE MONOCYTE / ABSOLUTE SEGMENTED NEUTROPHIL / BASOPHIL / EOSINOPHIL / ERYTHROCYTE COUNT / HEMATOCRIT / HEMOGLOBIN / LEUKOCYTE COUNT / LYMPHOCYTE / MEAN CORPUSCULAR HEMOGLOBIN / MEAN CORPUSCULAR HEMOGLOBIN CONCENTRATION / MEAN CORPUSCULAR VOLUME / MONOCYTE / NEUTROPHIL / NUCLEATED RED BLOOD CELLS / PLATELET COUNT: tissue Blood; for ALANINE AMINOTRANSFERASE / ALBUMIN / ALKALINE PHOSPHATASE / ASPARTATE AMINOTRANSFERASE / BLOOD UREA NITROGEN / CARBON DIOXIDE / CHLORIDE / CHOLESTEROL / CREATINE PHOSPHOKINASE / CREATININE / GLUCOSE / LACTATE DEHYDROGENASE / LIPASE / PHOSPHORUS / POTASSIUM / SODIUM / TOTAL BILIRUBIN / TOTAL PROTEIN / URIC ACID: tissue Plasma
[1] = 20 mg/kg, 72 h, dose level Low, time 3 day
[2] = 20 mg/kg, 120 h, dose level Low, time 5 day
[3] = 62 mg/kg, 72 h, dose level High, time 3 day
[4] = 62 mg/kg, 120 h, dose level High, time 5 day

## CCCSc1ccc2nc(NC(=O)OC)[nH]c2c1 [ALBENDAZOLE]
[1]
  ABSOLUTE BASOPHIL: 0 CELLS/uL
  ABSOLUTE EOSINOPHIL: 0 CELLS/uL
  ABSOLUTE LYMPHOCYTE: 12808 CELLS/uL
  ABSOLUTE MONOCYTE: 184.67 CELLS/uL
  ABSOLUTE SEGMENTED NEUTROPHIL: 1574 CELLS/uL
  BASOPHIL: 0%
  EOSINOPHIL: 0%
  ERYTHROCYTE COUNT: 5.37 x10E6/uL
  HEMATOCRIT: 33.33%
  HEMOGLOBIN: 13.47 G/DL
  LEUKOCYTE COUNT: 14.57 x10E3/uL
  LYMPHOCYTE: 88.67%
  MEAN CORPUSCULAR HEMOGLOBIN: 25.17 pg
  MEAN CORPUSCULAR HEMOGLOBIN CONCENTRATION: 40.47 G/DL
  MEAN CORPUSCULAR VOLUME: 62.17 fL
  MONOCYTE: 1.33%
  NEUTROPHIL: 10%
  NUCLEATED RED BLOOD CELLS: 0.33 /100WBC
  PLATELET COUNT: 1157.33 x10E3/uL
  ALANINE AMINOTRANSFERASE: 56.33 u/L
  ALBUMIN: 3.6 G/DL
  ALKALINE PHOSPHATASE: 430 u/L
  ASPARTATE AMINOTRANSFERASE: 87.33 u/L
  BLOOD UREA NITROGEN: 13.33 mg/dL
  CARBON DIOXIDE: 24.67 mmol/L
  CHLORIDE: 101 MEQ/L
  CHOLESTEROL: 64 mg/dL
  CREATINE PHOSPHOKINASE: 390.67 u/L
  CREATININE: 0.21 mg/dL
  GLUCOSE: 220.67 mg/dL
  LACTATE DEHYDROGENASE: 112.33 u/L
  LIPASE: 10.67 u/L
  PHOSPHORUS: 12.2 mg/dL
  POTASSIUM: 6.27 MEQ/L
  SODIUM: 141.23 MEQ/L
  TOTAL BILIRUBIN: 0.2 mg/dL
  TOTAL PROTEIN: 5.2 G/DL
  URIC ACID: 2.23 mg/dL
[2]
  ABSOLUTE BASOPHIL: 0 CELLS/uL
  ABSOLUTE EOSINOPHIL: 69.33 CELLS/uL
  ABSOLUTE LYMPHOCYTE: 7738 CELLS/uL
  ABSOLUTE MONOCYTE: 149.67 CELLS/uL
  ABSOLUTE SEGMENTED NEUTROPHIL: 776.33 CELLS/uL
  BASOPHIL: 0%
  EOSINOPHIL: 0.67%
  ERYTHROCYTE COUNT: 4.93 x10E6/uL
  HEMATOCRIT: 31.3%
  HEMOGLOBIN: 12.87 G/DL
  LEUKOCYTE COUNT: 8.73 x10E3/uL
  LYMPHOCYTE: 89.33%
  MEAN CORPUSCULAR HEMOGLOBIN: 26.07 pg
  MEAN CORPUSCULAR HEMOGLOBIN CONCENTRATION: 41.1 G/DL
  MEAN CORPUSCULAR VOLUME: 63.4 fL
  MONOCYTE: 1.67%
  NEUTROPHIL: 8.33%
  NUCLEATED RED BLOOD CELLS: 0 /100WBC
  PLATELET COUNT: 1525.33 x10E3/uL
  ALANINE AMINOTRANSFERASE: 53.67 u/L
  ALBUMIN: 4.03 G/DL
  ALKALINE PHOSPHATASE: 375.33 u/L
  ASPARTATE AMINOTRANSFERASE: 79 u/L
  BLOOD UREA NITROGEN: 15 mg/dL
  CARBON DIOXIDE: 26 mmol/L
  CHLORIDE: 102.67 MEQ/L
  CHOLESTEROL: 67 mg/dL
  CREATINE PHOSPHOKINASE: 225.67 u/L
  CREATININE: 0.21 mg/dL
  GLUCOSE: 161 mg/dL
  LACTATE DEHYDROGENASE: 141 u/L
  LIPASE: 11.67 u/L
  PHOSPHORUS: 10.97 mg/dL
  POTASSIUM: 5.64 MEQ/L
  SODIUM: 141.93 MEQ/L
  TOTAL BILIRUBIN: 0.1 mg/dL
  TOTAL PROTEIN: 5.5 G/DL
  URIC ACID: 1.37 mg/dL
[3]
  ABSOLUTE BASOPHIL: 0 CELLS/uL
  ABSOLUTE EOSINOPHIL: 0 CELLS/uL
  ABSOLUTE LYMPHOCYTE: 10254.67 CELLS/uL
  ABSOLUTE MONOCYTE: 0 CELLS/uL
  ABSOLUTE SEGMENTED NEUTROPHIL: 712 CELLS/uL
  BASOPHIL: 0%
  EOSINOPHIL: 0%
  ERYTHROCYTE COUNT: 5.64 x10E6/uL
  HEMATOCRIT: 34.47%
  HEMOGLOBIN: 13.47 G/DL
  LEUKOCYTE COUNT: 10.97 x10E3/uL
  LYMPHOCYTE: 94%
  MEAN CORPUSCULAR HEMOGLOBIN: 24 pg
  MEAN CORPUSCULAR HEMOGLOBIN CONCENTRATION: 39.13 G/DL
  MEAN CORPUSCULAR VOLUME: 61.27 fL
  MONOCYTE: 0%
  NEUTROPHIL: 6%
  NUCLEATED RED BLOOD CELLS: 0 /100WBC
  PLATELET COUNT: 1007.33 x10E3/uL
  ALANINE AMINOTRANSFERASE: 44 u/L
  ALBUMIN: 4.13 G/DL
  ALKALINE PHOSPHATASE: 381 u/L
  ASPARTATE AMINOTRANSFERASE: 99.67 u/L
  BLOOD UREA NITROGEN: 11 mg/dL
  CARBON DIOXIDE: 27.33 mmol/L
  CHLORIDE: 101.33 MEQ/L
  CHOLESTEROL: 99 mg/dL
  CREATINE PHOSPHOKINASE: 278 u/L
  CREATININE: 0.13 mg/dL
  GLUCOSE: 161.33 mg/dL
  LACTATE DEHYDROGENASE: 198.67 u/L
  LIPASE: 11.67 u/L
  PHOSPHORUS: 10.53 mg/dL
  POTASSIUM: 5.98 MEQ/L
  SODIUM: 141.53 MEQ/L
  TOTAL BILIRUBIN: 0.17 mg/dL
  TOTAL PROTEIN: 5.8 G/DL
  URIC ACID: 1.43 mg/dL
[4]
  ABSOLUTE BASOPHIL: 0 CELLS/uL
  ABSOLUTE EOSINOPHIL: 0 CELLS/uL
  ABSOLUTE LYMPHOCYTE: 7019.67 CELLS/uL
  ABSOLUTE MONOCYTE: 23.67 CELLS/uL
  ABSOLUTE SEGMENTED NEUTROPHIL: 190 CELLS/uL
  BASOPHIL: 0%
  EOSINOPHIL: 0%
  ERYTHROCYTE COUNT: 5.03 x10E6/uL
  HEMATOCRIT: 31%
  HEMOGLOBIN: 12.5 G/DL
  LEUKOCYTE COUNT: 7.23 x10E3/uL
  LYMPHOCYTE: 97%
  MEAN CORPUSCULAR HEMOGLOBIN: 24.9 pg
  MEAN CORPUSCULAR HEMOGLOBIN CONCENTRATION: 40.33 G/DL
  MEAN CORPUSCULAR VOLUME: 61.77 fL
  MONOCYTE: 0.33%
  NEUTROPHIL: 2.67%
  NUCLEATED RED BLOOD CELLS: 0 /100WBC
  PLATELET COUNT: 1425 x10E3/uL
  ALANINE AMINOTRANSFERASE: 29.33 u/L
  ALBUMIN: 4.03 G/DL
  ALKALINE PHOSPHATASE: 247.67 u/L
  ASPARTATE AMINOTRANSFERASE: 66.33 u/L
  BLOOD UREA NITROGEN: 12.33 mg/dL
  CARBON DIOXIDE: 24.33 mmol/L
  CHLORIDE: 101.33 MEQ/L
  CHOLESTEROL: 90.67 mg/dL
  CREATINE PHOSPHOKINASE: 237.67 u/L
  CREATININE: 0.11 mg/dL
  GLUCOSE: 141.33 mg/dL
  LACTATE DEHYDROGENASE: 106.33 u/L
  LIPASE: 11 u/L
  PHOSPHORUS: 11.33 mg/dL
  POTASSIUM: 6.31 MEQ/L
  SODIUM: 141.93 MEQ/L
  TOTAL BILIRUBIN: 0.27 mg/dL
  TOTAL PROTEIN: 5.37 G/DL
  URIC ACID: 1.77 mg/dL
